Molecular target: T1, Serp1129 (Staphylococcus epidermidis, UniProt Q5HNY5)
T1 construct: full ORF in pET30a+ (NcoI/BamHI), His-tagged, E. coli BL21(DE3), HisTrap purified
T1 sequence (Q5HNY5 1-272): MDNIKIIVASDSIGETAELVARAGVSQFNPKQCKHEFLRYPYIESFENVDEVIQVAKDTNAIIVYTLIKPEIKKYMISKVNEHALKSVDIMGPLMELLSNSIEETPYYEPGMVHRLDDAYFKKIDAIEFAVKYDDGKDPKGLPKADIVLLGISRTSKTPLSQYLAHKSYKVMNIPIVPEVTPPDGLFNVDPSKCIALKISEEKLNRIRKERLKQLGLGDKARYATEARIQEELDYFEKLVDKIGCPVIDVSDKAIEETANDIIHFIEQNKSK
Assay: competition against biotinylated azidoanilide GTP photoaffinity label, streptavidin blot
Assay type: binding
Conditions: 5-30 uM unlabeled GTP versus 1 uM labelled analogue; 25 °C, 30 s, then UV 254 nm

Nc1nc2c(ncn2[C@@H]2O[C@H](COP(=O)(O)OP(=O)(O)OP(=O)(O)O)[C@@H](O)[C@H]2O)c(=O)[nH]1 [GTP]
competition against biotinylated azidoanilide GTP photoaffinity label, streptavi: A similar pattern was observed when GTP binding reactions were performed

Reference: publication PMC2824700, “Genetic analysis of the Staphylococcus epidermidis Macromolecular Synthesis Operon: Serp1129 is an ATP binding protein and sigA transcription is regulated by both σ^A- and σ^B-dependent promoters” (BMC Microbiology, 2010)
